Assay results reported in US7138361B2, “Herbicidal heterocycles” (E. I. du Pont de Nemours and Company, priority 2000, dated 2006).

Tests used:
Format in all cases: in vivo
[1] = tested on: blackgrass (Alopecurus myosuroides); assay: Test B postemergence; details: 13 to 15 days
How it was run: (§1)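 Ratings on a 0 to 100 visual scale (100 complete control) compare treated plants with controls 13 to 15 days after application. Treatments were pre- or postemergence sprays of compound in non-phytotoxic solvent with surfactant.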

corn (Zea mays) [2] = assay: Test B postemergence; details: 13 to 15 days
How it was run: as §1

[3] = tested on: morning glory (Ipomoea hederacea); assay: Test B postemergence; details: 13 to 15 days
How it was run: as §1

[4] = tested on: giant foxtail (Setaria faberii); assay: Test B postemergence; details: 13 to 15 days
How it was run: as §1

[5] = tested on: pigweed (Amaranthus retroflexus); assay: Test B postemergence; details: 13 to 15 days
How it was run: as §1

[6] = tested on: Surinam grass (Brachiaria decumbens); assay: Test B postemergence; details: 13 to 15 days
How it was run: as §1

[7] = tested on: wheat (Triticum aestivum); assay: Test B postemergence; details: 13 to 15 days
How it was run: as §1

[8] = tested on: barnyardgrass (Echinochloa crus-galli); assay: Test B postemergence; details: 13 to 15 days
How it was run: as §1

[9] = tested on: velvetleaf (Abutilon theophrasti); assay: Test B postemergence; details: 13 to 15 days
How it was run: as §1

corn (Zea mays) [10] = assay: Test B preemergence; details: scale 0 to 100, 0 no effect, 100 complete control
How it was run: as §1

[11] = tested on: morning glory (Ipomoea hederacea); assay: Test B preemergence; details: Preemergence, Rate 500 g/ha; scale 0 to 100, 0 no effect, 100 complete control
How it was run: as §1

[12] = tested on: giant foxtail (Setaria faberii); assay: Test B preemergence; details: scale 0 to 100, 0 no effect, 100 complete control
How it was run: as §1

[13] = tested on: pigweed (Amaranthus retroflexus); assay: Test B preemergence; details: Preemergence, Rate 500 g/ha; scale 0 to 100, 0 no effect, 100 complete control
How it was run: as §1

rice (Oryza saliva) [14] = assay: Test B preemergence; details: Preemergence, Rate 500 g/ha; scale 0 to 100, 0 no effect, 100 complete control
How it was run: as §1

[15] = tested on: Surinam grass (Brachiaria decumbens); assay: Test B preemergence; details: scale 0 to 100, 0 no effect, 100 complete control
How it was run: as §1

[16] = tested on: crabgrass (Digitaria sanguinalis); assay: Test B preemergence; details: scale 0 to 100, 0 no effect, 100 complete control
How it was run: as §1

[17] = tested on: lambsquarters (Chenopodium album); assay: Test B preemergence; details: scale 0 to 100, 0 no effect, 100 complete control
How it was run: as §1

[18] = tested on: barnyardgrass (Echinochloa crus-galli); assay: Test B preemergence; details: scale 0 to 100, 0 no effect, 100 complete control
How it was run: as §1

[19] = tested on: cocklebur (Xanthium strumarium); assay: Test B preemergence; details: scale 0 to 100, 0 no effect, 100 complete control
How it was run: as §1

[20] = tested on: velvetleaf (Abutilon theophrasti); assay: Test B preemergence; details: Preemergence, Rate 500 g/ha; scale 0 to 100, 0 no effect, 100 complete control
How it was run: as §1

[21] = tested on: duck salad (Heteranthera limosa); assay: Test C flooded paddy test; details: for Ducksalad plant response rating: Flooded Paddy, scale 0 to 100, 0 no effect, 100 complete control; for Plant response rating, Ducksalad / Plant response rating (scale 0 to 100), Ducksalad: flooded paddy test; for Plant response rating, Ducksalad: scale 0 to 100 (0 no effect, 100 complete control)
How it was run: (§2)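 Visual injury score, 0 (no effect) to 100 (complete control), relative to controls. Paddy plants treated at 2-leaf stage; greenhouse hold 12–14 d before rating.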

rice (Oryza saliva) [22] = assay: Test C flooded paddy test; details: for Rice plant response rating: Flooded Paddy, scale 0 to 100, 0 no effect, 100 complete control; for Plant response rating, Rice / Plant response rating (scale 0 to 100), Rice: flooded paddy test; for Plant response rating, Rice: scale 0 to 100 (0 no effect, 100 complete control)
How it was run: as §2

[23] = tested on: barnyardgrass (Echinochloa crus-galli); assay: Test C flooded paddy test; details: for Barnyardgrass plant response rating: Flooded Paddy, scale 0 to 100, 0 no effect, 100 complete control; for Plant response rating, Barnyardgrass / Plant response rating (scale 0 to 100), Barnyardgrass: flooded paddy test; for Plant response rating, Barnyardgrass: scale 0 to 100 (0 no effect, 100 complete control)
How it was run: as §2

[24] = tested on: smallflower flatsedge (Cyperus difformis); assay: Test C flooded paddy test; details: for Flatsedge plant response rating: Flooded Paddy, scale 0 to 100, 0 no effect, 100 complete control; for Plant response rating, Flatsedge / Plant response rating (scale 0 to 100), Flatsedge: flooded paddy test; for Plant response rating, Flatsedge: scale 0 to 100 (0 no effect, 100 complete control)
How it was run: as §2

[25] = Rate 125 g/ha, scale 0 (no effect) to 100 (complete control)
[26] = Rate 500 g/ha, scale 0 to 100, 0 is no effect, 100 is complete control
[27] = Rate 16 g/ha, visually evaluated after 12 to 14 days, 0 = no effect, 100 = complete control
[28] = under head Rate 16 g/ha, (own rate not given), after 12 to 14 days

## COc1cc(N2CCC(n3ccc(C(C)(C)C)n3)C2=O)ccc1C (stereo not drawn) [Compound 42]
[1]; [25]
  Plant response rating, Blackgrass: 0
[1]; [26]
  Plant response rating, Blackgrass: 50
Corn (Zea mays) [2]; [25]
  Plant response rating, Corn: 0
Corn (Zea mays) [2]; [26]
  Plant response rating, Corn: 40
[3]; [25]
  Plant response rating, Morningglory: 60
[3]; [26]
  Plant response rating, Morningglory: 100
[4]; [25]
  Plant response rating, Foxtail, Giant: 50
[4]; [26]
  Plant response rating, Foxtail, Giant: 70
[5]; [25]
  Plant response rating, Pigweed: 80
[5]; [26]
  Plant response rating, Pigweed: 100
[6]; [25]
  Plant response rating, Surinam grass: 0
[6]; [26]
  Plant response rating, Surinam grass: 0
[7]; [25]
  Plant response rating, Wheat: 0
[7]; [26]
  Plant response rating, Wheat: 0
[8]; [25]
  Plant response rating, Barnyardgrass: 60
[8]; [26]
  Plant response rating, Barnyardgrass: 100
[9]; [25]
  Plant response rating, Velvetleaf: 50
[9]; [26]
  Plant response rating, Velvetleaf: 80
Corn (Zea mays) [10]; Preemergence, Rate 500 g/ha
  Plant response rating, Corn: 20
Corn (Zea mays) [10]; preemergence, Rate 125 g/ha
  Plant response rating, Corn: 20
[11]
  Plant response rating, Morningglory: 100
[12]; Preemergence, Rate 500 g/ha
  Plant response rating, Foxtail, Giant: 100
[12]; preemergence, Rate 125 g/ha
  Plant response rating, Foxtail, Giant: 100
[13]
  Plant response rating, Pigweed: 100
Rice (Oryza saliva) [14]
  Plant response rating, Rice: 100
[15]; Preemergence, Rate 500 g/ha
  Plant response rating, Surinam grass: 100
[15]; preemergence, Rate 125 g/ha
  Plant response rating, Surinam grass: 90
[16]; Preemergence, Rate 500 g/ha
  Plant response rating, Crabgrass: 100
[16]; preemergence, Rate 125 g/ha
  Plant response rating, Crabgrass: 100
[17]; Preemergence, Rate 500 g/ha
  Plant response rating, Lambsquarters: 100
[17]; preemergence, Rate 125 g/ha
  Plant response rating, Lambsquarters: 100
[18]; Preemergence, Rate 500 g/ha
  Plant response rating, Barnyardgrass: 100
[18]; preemergence, Rate 125 g/ha
  Plant response rating, Barnyardgrass: 100
[19]; Preemergence, Rate 500 g/ha
  Plant response rating, Cocklebur: 70
[19]; preemergence, Rate 125 g/ha
  Plant response rating, Cocklebur: 0
[20]
  Plant response rating, Velvetleaf: 90
[21]; Rate 250 g/ha
  Ducksalad plant response rating: 100
[21]; Rate 500 g/ha
  Ducksalad plant response rating: 100
[21]; Rate 62 g/ha
  Plant response rating, Ducksalad: 100
[21]; Rate 125 g/ha
  Plant response rating, Ducksalad: 100
[21]; [27]
  Plant response rating (scale 0 to 100), Ducksalad: 90
[21]; [28]
  Plant response rating (scale 0 to 100), Ducksalad: 80
Rice (Oryza saliva) [22]; Rate 250 g/ha
  Rice plant response rating: 70
Rice (Oryza saliva) [22]; Rate 500 g/ha
  Rice plant response rating: 80
Rice (Oryza saliva) [22]; Rate 62 g/ha
  Plant response rating, Rice: 20
Rice (Oryza saliva) [22]; Rate 125 g/ha
  Plant response rating, Rice: 40
Rice (Oryza saliva) [22]; [27]
  Plant response rating (scale 0 to 100), Rice: 0
Rice (Oryza saliva) [22]; [28]
  Plant response rating (scale 0 to 100), Rice: 0
[23]; Rate 250 g/ha
  Barnyardgrass plant response rating: 100
[23]; Rate 500 g/ha
  Barnyardgrass plant response rating: 100
[23]; Rate 62 g/ha
  Plant response rating, Barnyardgrass: 100
[23]; Rate 125 g/ha
  Plant response rating, Barnyardgrass: 100
[23]; [27]
  Plant response rating (scale 0 to 100), Barnyardgrass: 70
[23]; [28]
  Plant response rating (scale 0 to 100), Barnyardgrass: 50
[24]; Rate 250 g/ha
  Flatsedge plant response rating: 100
[24]; Rate 500 g/ha
  Flatsedge plant response rating: 100
[24]; Rate 62 g/ha
  Plant response rating, Flatsedge: 100
[24]; Rate 125 g/ha
  Plant response rating, Flatsedge: 100
[24]; [27]
  Plant response rating (scale 0 to 100), Flatsedge: 100
[24]; [28]
  Plant response rating (scale 0 to 100), Flatsedge: 100
